# Laboratory results taken from patent US11505574B2, “Modulation of P53 for the treatment of cancer” (THE REGENTS OF THE UNIVERSITY OF CALIFORNIA, priority 2016, dated 2022).
# Entries after “also recorded” stand apart in the source; their conditions may differ.
# What was measured:
# RKO cells = experiment: RKO cell colony formation assay (oligonucleotides); format: cell-based; conditions: 5 μM oligonucleotide for 24 hours; versus M3 control (FIG. 30)
# Source text: Another strategy is to use oligonucleotides to block the interaction between RBM38 and the 3′ untranslated region (UTR) of p53 in order to modulate p53 translation (FIG. 26). To this end, a region of the p53 3′ UTR where RBM38 interacts (FIG. 27) was identified (SEQ ID NO:15) and several oligonucleotides having complementarity to this sequence (e.g., SEQ ID NOS:16-21) were designed.
# p53 [1] = experiment: Western blot for p53 in MCF7 cells treated with oligonucleotides; format: cell-based, human; conditions: MCF7 cells; oligonucleotide 50 nM; 24 hours (FIG. 2)
# [2] = system: MIA-PaCa-2 pancreatic cancer cells; experiment: MIA-PaCa-2 cell colony formation assay (peptides); format: cell-based, human; conditions: complexes of peptide and PEP1 (FIG. 18)
# Source text: […] […] After colonies formed they were fixed (i.e., using 7:1 MeOH:glacial acetic acid) and stained with crystal violet.
# [3] = system: tumor cell colony formation; experiment: Tumor cell colony formation assay, cell line not stated (FIGS. 13C, 20D); format: cell-based; conditions: complexes with PEP1 (FIG. 13C)
# MCF7 cells = experiment: MCF7 cell colony formation assay (peptides); format: cell-based, human; conditions: for MCF7 cell colony formation: 375 nM peptide with 7.5 μg PEP1 (20:1) (FIG. 1B); for inhibition of colony formation by low-dose doxorubicin: MCF7 cells, 375 nM peptide with 7.5 μg PEP1 (20:1) plus 3.125 ng/mL doxorubicin (FIG. 1D); for colony formation in MCF7 cells: complexes of peptide and PEP1 (FIG. 18)
# Protocol: In order to test the effect of the RBM38 and eIF4E peptides on cancer cell colony formation, MCF7 cells were seeded in 6-well plates at a density of 1×10^3 cells per well. The following day, cells were treated with peptides. In order to form stable complexes with PEP1, 100 μl of serum-free DMEM was added to individual Eppendorf tubes. Control (SEQ ID NO:11), RBM38, and eIF4E peptides were added at a concentration of 375 nM and then 7.5 μg of PEP1 was added to each peptide (20:1). The complexes were incubated for 20 minutes at room temperature and then added dropwise to cells. Cell media was changed every three days until colonies were visible. The cells were fixed and then stained with crystal violet.
# In order to test the effect of a combination treatment comprising peptides of the present invention and a chemotherapeutic agent on cancer cell colony formation, MCF7 cells were seeded in 6-well plates at a density of 1×10^3 cells per well. The following day, cells were treated with peptides. In order to form stable complexes with PEP1, 100 μL of serum-free DMEM was added to individual Eppendorf tubes. Control, RBM38, eIF4E, and peptide-8 peptides were added at a concentration of 375 nM and then 7.5 μg of PEP1 was added to each peptide (20:1). The complexes were incubated for 20 minutes at room temperature and then added dropwise to cells. 20 minutes after addition of peptide complexes, 3.125 ng/mL doxorubicin was added to the cells. Cell media was changed every three days until colonies were visible. The cells were fixed and then stained with crystal violet.
# For the experiments shown in FIG. 34C, MCF7 cells were seeded on a 6-well plate at a seed density of 1×10^3 cells per well. The following day the cells were treated with 5 μM Pen-Ctrl or 5 μM Pen-Pep23. The following day, 6.25 ng/mL doxorubicin was added to the cells for 48 hours. Subsequently, the cell media was changed every 3 days until colonies were visible. The cells were fixed and stained with crystal violet.
# p53 [4] = experiment: Western blot for p53 and downstream targets in MCF7 cells treated with peptides; format: cell-based, human; conditions: for p53 expression (Western blot) / protein expression of p53 and downstream targets p21 and MDM2 (Western blot) / p53 and p21 expression after low-dose doxorubicin treatment (Western blot) / doxorubicin-mediated p53 and p21 upregulation (Western blot) / expression of p53 and downstream targets with low-dose doxorubicin (Western blot) / expression of p53 and downstream targets p21 and MDM2 (Western blot): MCF7 cells; for p53 expression (Western blot): 300 nM peptide with 6 μM PEP1, 24 hours (FIG. 31B); for protein expression of p53 and downstream targets p21 and MDM2 (Western blot): 300 nM peptide with 6 μg PEP1 (20:1 PEP1 to peptide), 18 hours (FIG. 1A); for p53 and p21 expression after low-dose doxorubicin treatment (Western blot): 375 nM peptide with 7.5 μM PEP1, 6.25 ng/mL doxorubicin 18 hours (FIG. 34H); for doxorubicin-mediated p53 and p21 upregulation (Western blot): 375 nM peptide with (20:1) plus 6.25 ng/mL doxorubicin, 18 hours (FIG. 1C); for expression of p53 and downstream targets with low-dose doxorubicin (Western blot): complexes of CPPs and peptide plus doxorubicin 6.25 ng/mL (FIG. 19B); for expression of p53 and downstream targets p21 and MDM2 (Western blot): complexes with PEP1 (FIG. 13B)
# p53 [5] = experiment: Western blot for p53 and downstream targets in RKO cells treated with peptides; format: cell-based, human; conditions: RKO cells; for p53 expression (Western blot): 300 nM peptide with 6 μM PEP1, 24 hours (FIG. 31A); for p53 and p21 expression after low-dose doxorubicin treatment (Western blot) / p53 protein expression compared to Pep8 (Western blot): 375 nM peptide with 7.5 μM PEP1; for p53 and p21 expression after low-dose doxorubicin treatment (Western blot): 6.25 ng/mL doxorubicin 18 hours (FIG. 34G); for expression of p53 and downstream targets with low-dose doxorubicin (Western blot): complexes of CPPs and peptide plus doxorubicin 6.25 ng/mL (FIG. 19A); for expression of p53 (Western blot): peptide complexed with PEP1 (FIG. 13A); for p53 protein expression compared to Pep8 (Western blot): 18 hours (FIG. 37A)
# U20S = U20S cell colony formation assay (FIG. 18); format: cell-based, human; conditions: complexes of peptide and PEP1 (FIG. 18)
sequence,measurement,setting,value
AAAAAAGAAAAAAAA (chemistry not given here) [14A/G],RKO tumor cell colony formation,RKO cells,inhibited RKO tumor cell colony formation after 24 hours more than the M3 control oligonucleotide did
same,level of p53 (Western blot),p53 [1],level of p53 was increased
IGYQSHADTATKSGSTTKNRFVV [eIF4E],colony formation in MIA-PaCa-2 pancreatic cancer cells,[2],inhibited colony formation
same,tumor cell colony formation,[3],successful at inhibiting tumor cell colony formation
same,MCF7 cell colony formation,MCF7 cells,able to inhibit MCF7 cell colony formation; also recorded: able to suppress colony formation of MCF7 breast cancer cells; also recorded: decreased colony formation
same,inhibition of colony formation by low-dose doxorubicin,MCF7 cells,enhanced the inhibition of colony formation by low-dose doxorubicin; also recorded: led to decreased colony formation
same,colony formation in MCF7 cells,MCF7 cells,inhibited colony formation
same,p53 expression (Western blot),p53 [4],able to increase p53 expression
same,protein expression of p53 and downstream targets p21 and MDM2 (Western blot),p53 [4],increased protein expression of p53 and the downstream targets p21 and mouse double minute 2 homolog (MDM2); also recorded: increasing p53 protein levels; also recorded: induced p53 and downstream targets p21 and MDM2
same,p53 and p21 expression after low-dose doxorubicin treatment (Western blot),p53 [4],further increased p53 and p21 expression
same,doxorubicin-mediated p53 and p21 upregulation (Western blot),p53 [4],enhanced the effect of doxorubicin-mediated p53 and p21 upregulation; also recorded: able to enhance the induction of p53 and p21
same,expression of p53 and downstream targets with low-dose doxorubicin (Western blot),p53 [4],increased the expression of p53 and downstream targets
same,expression of p53 and downstream targets p21 and MDM2 (Western blot),p53 [4],expression of p53 and downstream targets p21 and MDM2 was increased
same,p53 expression (Western blot),p53 [5],able to increase p53 expression
same,p53 and p21 expression after low-dose doxorubicin treatment (Western blot),p53 [5],further increased p53 and p21 expression
same,expression of p53 and downstream targets with low-dose doxorubicin (Western blot),p53 [5],increased the expression of p53 and downstream targets
same,expression of p53 (Western blot),p53 [5],expression of p53 was increased relative to controls
same,colony formation in U20S cells,U20S,inhibited colony formation
"AAAGAAAAAAGAAAA (listed as DNA, chemistry not given here) [18T-AS-15]",level of p53 (Western blot),p53 [1],level of p53 was increased
"AAAGAAAAAAGAAAAAAAA (listed as DNA, chemistry not given here) [18T-AS-19]",level of p53 (Western blot),p53 [1],level of p53 was increased
"YPYAARPA [Pep8-SR, Pep8 mutant]",p53 protein expression compared to Pep8 (Western blot),p53 [5],stronger ability to induce p53 protein expression compared to Pep8
"AAAAAAAAAAAAAAAAAA (listed as DNA, chemistry not given here) [15A]",RKO tumor cell colony formation,RKO cells,inhibited RKO tumor cell colony formation after 24 hours more than the M3 control oligonucleotide did
same,level of p53 (Western blot),p53 [1],level of p53 was increased
"AAAGAAAAAAGAAAAAAAAAAAAAAAAAA (listed as DNA, chemistry not given here) [18T-AS-29]",level of p53 (Western blot),p53 [1],level of p53 was increased
"YPYAAKPA [Pep8-SK, Pep8 mutant]",p53 protein expression compared to Pep8 (Western blot),p53 [5],stronger ability to induce p53 protein expression compared to Pep8
"AAAGAAAAAAGAAAAAAAAAAAAAAAAAAGAAAAAGAA (listed as DNA, chemistry not given here) [18T-AS]",level of p53 (Western blot),p53 [1],level of p53 was increased
YPYAASPA [peptide-8],colony formation in MIA-PaCa-2 pancreatic cancer cells,[2],inhibited colony formation
same,inhibition of colony formation by low-dose doxorubicin,MCF7 cells,enhanced the inhibition of colony formation by low-dose doxorubicin; also recorded: led to decreased colony formation
same,colony formation in MCF7 cells,MCF7 cells,inhibited colony formation
same,induction of p53 (Western blot),"p53 [4]; MCF7 cells 375 nM, 50 nM or 150 nM, RKO cells 150 nM (FIG. 16)",stronger induction of p53 than the longer RBM38 and eIF4E peptides; also recorded: increases p53 expression
same,p53 and p21 expression after low-dose doxorubicin treatment (Western blot),p53 [4],further increased p53 and p21 expression
same,doxorubicin-mediated p53 and p21 upregulation (Western blot),p53 [4],enhanced the effect of doxorubicin-mediated p53 and p21 upregulation; also recorded: able to enhance the induction of p53 and p21
same,expression of p53 and downstream targets with low-dose doxorubicin (Western blot),p53 [4],increased the expression of p53 and downstream targets
same,p53 protein levels (Western blot),"p53 [5]; 50 nM peptide with 1 μM PEP1, 18 hours (FIG. 32A)",could induce p53 protein levels
same,p53 and p21 expression after low-dose doxorubicin treatment (Western blot),p53 [5],further increased p53 and p21 expression
same,expression of p53 and downstream targets with low-dose doxorubicin (Western blot),p53 [5],increased the expression of p53 and downstream targets
same,colony formation in U20S cells,U20S,inhibited colony formation
QYPPATYDQYPYAASPATAASFVGYSYPAAVPQALSAAAP [RBM38],tumor cell colony formation,[3],successful at inhibiting tumor cell colony formation
same,MCF7 cell colony formation,MCF7 cells,able to inhibit MCF7 cell colony formation; also recorded: able to suppress colony formation of MCF7 breast cancer cells; also recorded: decreased colony formation
same,inhibition of colony formation by low-dose doxorubicin,MCF7 cells,enhanced the inhibition of colony formation by low-dose doxorubicin
same,p53 expression (Western blot),p53 [4],able to increase p53 expression
same,protein expression of p53 and downstream targets p21 and MDM2 (Western blot),p53 [4],increased protein expression of p53 and the downstream targets p21 and mouse double minute 2 homolog (MDM2); also recorded: increasing p53 protein levels; also recorded: induced p53 and downstream targets p21 and MDM2
same,p53 and p21 expression after low-dose doxorubicin treatment (Western blot),p53 [4],further increased p53 and p21 expression
same,doxorubicin-mediated p53 and p21 upregulation (Western blot),p53 [4],enhanced the effect of doxorubicin-mediated p53 and p21 upregulation; also recorded: able to enhance the induction of p53 and p21
same,expression of p53 and downstream targets with low-dose doxorubicin (Western blot),p53 [4],increased the expression of p53 and downstream targets
same,expression of p53 and downstream targets p21 and MDM2 (Western blot),p53 [4],expression of p53 and downstream targets p21 and MDM2 was increased
same,p53 expression (Western blot),p53 [5],able to increase p53 expression
same,p53 and p21 expression after low-dose doxorubicin treatment (Western blot),p53 [5],further increased p53 and p21 expression
same,expression of p53 and downstream targets with low-dose doxorubicin (Western blot),p53 [5],increased the expression of p53 and downstream targets
same,expression of p53 (Western blot),p53 [5],expression of p53 was increased relative to controls
